We go through 2 molecules from patent US20040171659A1, “Methods for treating diabetes” (priority 2002, published 2004).

Experiment [1] concerns monocyte migration. As to conditions: Chen 2001; cited from earlier work.
For experiment [2], the system named is rat insulinoma cells. As to conditions: cited from earlier work.
Experiment [3] has as its target T1, p38 MAPK (Homo sapiens, UniProt Q16539).
T1 construct: made in house; host or cells: cells (e.g., HeLa) transfected with kinase DNA, stimulated, kinase immunoprecipitated from lysate
Kind of experiment: phosphorylation assay of p38 MAPK activity (see Kumar). The experiment is classed as biochemical. To be noted: assay similar to the phosphorylation assay (Kumar); read-out: p38 MAPK activity, relative IC50 value. On the procedure:
After immunoprecipitation of cell lysates, equal aliquots of immune complexes of the kinases are pre-incubated for an adequate time with a specific concentration of the potential inhibitor followed by addition of kinase substrate buffer mix containing labeled ATP and GST-ATF2 or MBP. […] Phosphorylated substrate is resolved through SDS-PAGE and visualized and quantitated in a phosphorimager. […] Res. Commun.

T1 sequence (Q16539 whole entry): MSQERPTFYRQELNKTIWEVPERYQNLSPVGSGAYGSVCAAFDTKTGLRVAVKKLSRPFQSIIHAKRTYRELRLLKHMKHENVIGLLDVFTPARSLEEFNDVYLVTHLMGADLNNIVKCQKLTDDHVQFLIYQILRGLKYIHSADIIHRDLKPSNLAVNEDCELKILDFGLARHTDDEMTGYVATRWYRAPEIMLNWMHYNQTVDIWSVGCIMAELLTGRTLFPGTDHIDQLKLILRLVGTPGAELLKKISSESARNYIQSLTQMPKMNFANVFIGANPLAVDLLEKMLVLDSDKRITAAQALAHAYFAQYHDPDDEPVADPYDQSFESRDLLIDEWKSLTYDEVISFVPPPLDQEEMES

For `C[S+]([O-])c1ccc(-c2nc(-c3ccncc3)c(-c3ccc(F)cc3)[nH]2)cc1` (stereo not drawn) [SB203580], the Monocyte migration entry in experiment [1] is listed as “blockade”. Besides, the “p38-dependent enhancement of cytokines expression by hsp70” value in experiment [2] was “blocks this activity”. As a reminder, the IC50 is the concentration at which inhibition is half-maximal. `COc1cc2c(cc1C(=O)N1CC(C)N(Cc3ccc(F)cc3)CC1C)c(C(=O)C(=O)N(C)C)cn2C` (stereo not drawn) [compound 15]: the half-maximal inhibitory concentration (IC50) in experiment [3] was below 5 nM.
